Consider 1 compound from patent US12325710B2, “Substituted 1,2,3,4,5,6-hexahydroazepino[4,5-b]indoles for treating brain disorders” (priority 2019, dated 2025).

This test has as its target T1, 5-HT2C (Homo sapiens, UniProt P28335).
T1 sequence (P28335 33-458): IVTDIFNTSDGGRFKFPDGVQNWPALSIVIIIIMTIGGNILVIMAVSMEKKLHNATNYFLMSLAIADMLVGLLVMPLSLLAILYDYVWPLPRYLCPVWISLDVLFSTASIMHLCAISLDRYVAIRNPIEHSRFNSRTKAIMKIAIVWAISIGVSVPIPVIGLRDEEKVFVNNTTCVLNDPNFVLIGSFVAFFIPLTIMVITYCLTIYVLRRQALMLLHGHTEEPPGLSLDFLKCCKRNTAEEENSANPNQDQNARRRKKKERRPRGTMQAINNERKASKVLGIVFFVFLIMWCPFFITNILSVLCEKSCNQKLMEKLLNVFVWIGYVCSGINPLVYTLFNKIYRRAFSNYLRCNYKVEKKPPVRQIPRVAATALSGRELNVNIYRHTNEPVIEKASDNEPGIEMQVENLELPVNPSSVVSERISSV
In words: 5-HT2C Gq-mediated calcium flux functional assay. The test is classed as cell-based. As for the experimental part: Serotonin and Opioid Receptor Functional Assays. Functional assay screens at 5-HT and opioid receptors were performed in parallel using the same compound dilutions and 384-well format high-throughput assay platforms. Assays assessed activity at all human isoforms of the receptors, except where noted for the mouse 5-HT2A receptor. Receptor constructs in pcDNA vectors were generated from the Presto-Tango GPCR library with minor modifications. All compounds were serially diluted in drug buffer (HBSS, 20 mM HEPES, pH 7.4 supplemented with 0.1% bovine serum albumin and 0.01% ascorbic acid) and dispensed into 384-well assay plates using a FLIPR^TETRA (Molecular Devices). Every plate included a positive control such as 5-HT (for all 5-HT receptors), DADLE (DOR), salvinorin A (KOR), and DAMGO (MOR). For measurements of 5-HT2A, 5-HT2B, and 5-HT2C Gq-mediated calcium flux function, HEK Flp-In 293 T-Rex stable cell lines (Invitrogen) were loaded with Fluo-4 dye for one hour, stimulated with compounds and read for baseline (0-10 seconds) and peak fold-over-basal fluorescence (5 minutes) at 25° C. on the FLIPR^TETRA. For measurement of 5-HT6 and 5-HT7a functional assays, Gs-mediated cAMP accumulation was detected using the split-luciferase GloSensor assay in HEKT cells measuring luminescence on a Microbeta Trilux (Perkin Elmer) with a 15 min drug incubation at 25° C. […]
(In general: Calcium assays in cells follow changes in intracellular calcium, usually with a dye or a luminescent sensor.)

On to `COc1ccc2c3c([nH]c2c1)CCN(C)CC3` [TBG], for which the “5-HT2C agonist activity compared to 5-MeO-DMT” value is “weaker 5-HT1A and 5-HT2C agonist activity”.
